From patent US20100305113A1, “Substituted Imidazopyridazines as Lipid Kinase Inhibitors” (priority 2007, published 2010) come the findings set out here.

Each structure is given as a SMILES string. Some results are limits rather than exact numbers.

Format in all cases: biochemical
Conditions in all cases: Enzymatic Data

One assay has as its target T1, PI3K beta (Homo sapiens, UniProt P42338).
T1 construct: for the full-length p110-b subunit are generated and fused by overlapping PCR; p85(iSH2) fusion partner (same polypeptide; see partner chain) (N); Gly linker (N); His tag (C); made in house; host or cells: baculovirus; Tn5 (Trichoplusia ni) or TiniPro insect cells
Briefly: PI3K beta enzymatic assay (Kinase-Glo luminescence). How it is done:
(§1) In a more preferred assay, the kinase reaction is performed in a final volume of 10 μL per well of a low volume non binding CORNING, 384 well black plate (Cat. No. #3676). The final concentrations of ATP and phosphatidyl inositol (PI) in the assay are 1 μM and 10 μg/mL respectively. The reaction is started by the addition of ATP.
(§2) The components of the assay are added per well as follows:
(§3) 50 nL test compounds in 90% DMSO per well, in columns 1-20, 8 concentrations (⅓ and 1/3.33 serial dilution step) in single. • Low control: 50 nL of 90% DMSO in half the wells of columns 23-24 (0.45% in final). • High control: 50 nL of reference compound (e.g. compound of Example 7 in WO 2006/122806, incorporated by reference herein that regard) in the other half of columns 23-24 (2.5 μM in final). • Standard: 50 nL of reference compound as just mentioned diluted as the test compounds in columns 21-22 • 20 mL ‘buffer’ are prepared per assay: • 200 μL of 1M TRIS HCl pH7.5 (10 mM in final) • 60 μL of 1M MgCl2 (3 mM in final) • 500 μL of 2M NaCl (50 mM in final) • 100 μL of 10% CHAPS (0.05% in final) • 200 μL of 100 mM DTT (1 mM in final) • 18.94 mL of nanopure water • 10 mL ‘PI’ are prepared per assay: • 200 μL of 1 mg/ml L-alpha-Phosphatidylinositol (Liver Bovine, Avanti Polar Lipids Cat. No. 840042C MW=909.12) prepared in 3% OctylGlucoside ([…]) • 9.8 mL of ‘buffer’ • 10 mL ‘ATP’ are prepared per assay: • 6.7 μL of 3 mM stock of ATP giving a final concentration of 1 μM per well • 10 mL of ‘buffer’ • 2.5 mL of each PI3K construct are prepared per assay in ‘PI’ with the following final concentration: • 10 nM PI3K alfa BV-1075 • 25 nM beta BV-949 • 10 nM delta BV-1060 • 150 nM gamma BV-950 • 5 μL of ‘PI/PI3K’ are added per well. • 5 μl ‘ATP’ are added per well to start the reaction. • The plates are then incubated at room temperature for 60 minutes (alfa, beta, delta) or 120 minutes (gamma). • The reaction is terminated by the addition of 10 μL Kinase-Glo (Promega Cat. No. #6714). • The assay plates are read after 10 minutes in Synergy 2 reader (BioTek, Vermont USA) with an integration time of 100 milliseconds and sensitivity set to 191. • Output: The High control is around 60′000 counts and the Low control is 30′000 or lower • This luminescence assay gives a useful Z′ ratio between 0.4 and 0.7 The Z′ value is a universal measurement of the robustness of an assay. A Z′ between 0.5 and 1.0 is considered an excellent assay.
PI3Kβ BV-949 p85(iSH2)-Gly linker-p110b (Full-Length)-C-Term His Tag
(§4) IC50 is determined by a four parameter curve fitting routine that comes aloneg with “excel fit”. A 4 Parameter logistic equation is used to calculate IC50 values (IDBS XLfit) of the percentage inhibition of each compound at 8 concentrations (usually 10, 3.0, 1.0, 0.3, 0.1, 0.030, 0.010 and 0.003 μM). Alternatively, IC50 values are calculated using idbsXLfit model 204, which is a 4 parameter logistic model.

Another assay addresses T2, PI3K delta (Homo sapiens, UniProt O00329).
T2 construct: for the full-length p110-d subunit are generated and fused by overlapping PCR; p85(iSH2) fusion partner (same polypeptide; see partner chain) (N); Gly linker (N); His tag (C); made in house; host or cells: baculovirus; Tn5 (Trichoplusia ni) or TiniPro insect cells
The experiment in a line: PI3K delta enzymatic assay (Kinase-Glo luminescence). How it is done:
as §1, §2, §3
PI3Kδ BV-1060 p85(iSH2)-Gly Linker-p110d (Full-Length)-C-term His Tact
as §4

Another assay concerns the target T3, PI3K alfa (Homo sapiens, UniProt P42336).
T3 construct: p85(iSH2) fusion partner (same polypeptide; see partner chain) (N); 12x Gly linker (N); His tag (C); made in house; host or cells: baculovirus; Tn5 (Trichoplusia ni) or TiniPro insect cells
The experiment in a line: PI3K alfa enzymatic assay (Kinase-Glo luminescence). How it is done:
as §1, §2, §3, §4

The next assay has as its target T4, PI3K gamma (Homo sapiens, UniProt P48736).
T4 construct: His tag (C); made in house; host or cells: construct from Roger Williams lab (MRC LMB); baculovirus (pVL1393); Tn5 (Trichoplusia ni) or TiniPro insect cells
The experiment in a line: PI3K gamma enzymatic assay (Kinase-Glo luminescence). As to the method:
as §1, §2, §3, §4
In general terms: Kinase-Glo measures the ATP left after a reaction by luminescence.

T3 sequence (P42336 with tags, fused parts or gaps limits assumed): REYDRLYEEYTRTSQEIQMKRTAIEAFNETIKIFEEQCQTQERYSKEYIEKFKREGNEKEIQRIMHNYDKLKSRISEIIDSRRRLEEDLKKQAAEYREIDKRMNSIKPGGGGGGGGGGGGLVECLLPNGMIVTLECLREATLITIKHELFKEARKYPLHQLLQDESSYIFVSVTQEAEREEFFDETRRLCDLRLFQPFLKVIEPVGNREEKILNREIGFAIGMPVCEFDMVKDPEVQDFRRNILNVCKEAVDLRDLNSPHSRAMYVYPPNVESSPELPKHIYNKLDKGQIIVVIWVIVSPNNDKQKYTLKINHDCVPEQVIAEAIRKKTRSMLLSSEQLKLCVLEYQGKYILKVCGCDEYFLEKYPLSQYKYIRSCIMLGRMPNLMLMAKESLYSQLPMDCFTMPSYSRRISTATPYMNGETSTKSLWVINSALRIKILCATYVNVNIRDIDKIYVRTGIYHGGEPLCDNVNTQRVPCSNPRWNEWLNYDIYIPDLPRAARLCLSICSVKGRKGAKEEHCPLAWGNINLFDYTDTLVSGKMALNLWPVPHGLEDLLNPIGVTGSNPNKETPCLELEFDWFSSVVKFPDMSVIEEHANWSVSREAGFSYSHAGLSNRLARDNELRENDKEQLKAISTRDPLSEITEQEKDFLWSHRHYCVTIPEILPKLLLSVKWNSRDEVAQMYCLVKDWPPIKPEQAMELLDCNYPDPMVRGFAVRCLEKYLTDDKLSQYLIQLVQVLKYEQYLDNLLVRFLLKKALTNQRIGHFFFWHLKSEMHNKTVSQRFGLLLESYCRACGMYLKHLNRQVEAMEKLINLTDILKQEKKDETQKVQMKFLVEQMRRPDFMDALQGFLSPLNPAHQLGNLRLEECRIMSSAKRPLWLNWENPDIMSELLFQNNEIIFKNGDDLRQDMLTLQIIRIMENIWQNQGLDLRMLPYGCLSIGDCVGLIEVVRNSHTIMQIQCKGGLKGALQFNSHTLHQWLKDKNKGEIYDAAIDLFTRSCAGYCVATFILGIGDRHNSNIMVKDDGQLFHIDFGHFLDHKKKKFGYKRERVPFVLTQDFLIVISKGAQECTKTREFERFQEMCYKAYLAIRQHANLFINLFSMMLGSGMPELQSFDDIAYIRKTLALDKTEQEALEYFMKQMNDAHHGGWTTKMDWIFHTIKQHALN
T4 sequence (P48736 144-1102 limits assumed): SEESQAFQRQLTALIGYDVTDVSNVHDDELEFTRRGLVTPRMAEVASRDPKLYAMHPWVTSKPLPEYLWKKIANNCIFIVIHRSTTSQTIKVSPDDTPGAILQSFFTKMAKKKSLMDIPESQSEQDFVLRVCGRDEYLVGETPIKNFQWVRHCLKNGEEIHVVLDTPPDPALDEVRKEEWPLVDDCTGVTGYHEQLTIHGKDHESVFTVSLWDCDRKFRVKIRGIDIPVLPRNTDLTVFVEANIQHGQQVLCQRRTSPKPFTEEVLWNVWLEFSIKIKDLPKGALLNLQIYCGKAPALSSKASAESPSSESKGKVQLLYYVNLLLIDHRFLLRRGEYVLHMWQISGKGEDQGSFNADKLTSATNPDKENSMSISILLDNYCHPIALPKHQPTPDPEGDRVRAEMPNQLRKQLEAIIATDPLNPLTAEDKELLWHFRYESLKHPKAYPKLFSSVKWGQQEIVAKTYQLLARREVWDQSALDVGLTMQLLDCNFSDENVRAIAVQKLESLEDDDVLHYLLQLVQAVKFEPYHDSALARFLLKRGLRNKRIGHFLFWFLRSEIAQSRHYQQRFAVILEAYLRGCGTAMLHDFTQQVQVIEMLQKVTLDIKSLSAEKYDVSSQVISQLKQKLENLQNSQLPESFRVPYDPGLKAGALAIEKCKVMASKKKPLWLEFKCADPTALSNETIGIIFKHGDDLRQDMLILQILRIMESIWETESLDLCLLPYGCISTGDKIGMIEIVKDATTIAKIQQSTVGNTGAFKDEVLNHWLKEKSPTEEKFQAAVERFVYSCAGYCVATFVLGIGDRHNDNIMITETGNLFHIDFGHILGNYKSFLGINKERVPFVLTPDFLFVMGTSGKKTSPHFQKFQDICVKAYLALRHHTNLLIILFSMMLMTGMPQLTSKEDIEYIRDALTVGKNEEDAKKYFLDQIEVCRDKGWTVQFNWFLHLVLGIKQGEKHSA
T1 sequence (P42338 with tags, fused parts or gaps limits assumed): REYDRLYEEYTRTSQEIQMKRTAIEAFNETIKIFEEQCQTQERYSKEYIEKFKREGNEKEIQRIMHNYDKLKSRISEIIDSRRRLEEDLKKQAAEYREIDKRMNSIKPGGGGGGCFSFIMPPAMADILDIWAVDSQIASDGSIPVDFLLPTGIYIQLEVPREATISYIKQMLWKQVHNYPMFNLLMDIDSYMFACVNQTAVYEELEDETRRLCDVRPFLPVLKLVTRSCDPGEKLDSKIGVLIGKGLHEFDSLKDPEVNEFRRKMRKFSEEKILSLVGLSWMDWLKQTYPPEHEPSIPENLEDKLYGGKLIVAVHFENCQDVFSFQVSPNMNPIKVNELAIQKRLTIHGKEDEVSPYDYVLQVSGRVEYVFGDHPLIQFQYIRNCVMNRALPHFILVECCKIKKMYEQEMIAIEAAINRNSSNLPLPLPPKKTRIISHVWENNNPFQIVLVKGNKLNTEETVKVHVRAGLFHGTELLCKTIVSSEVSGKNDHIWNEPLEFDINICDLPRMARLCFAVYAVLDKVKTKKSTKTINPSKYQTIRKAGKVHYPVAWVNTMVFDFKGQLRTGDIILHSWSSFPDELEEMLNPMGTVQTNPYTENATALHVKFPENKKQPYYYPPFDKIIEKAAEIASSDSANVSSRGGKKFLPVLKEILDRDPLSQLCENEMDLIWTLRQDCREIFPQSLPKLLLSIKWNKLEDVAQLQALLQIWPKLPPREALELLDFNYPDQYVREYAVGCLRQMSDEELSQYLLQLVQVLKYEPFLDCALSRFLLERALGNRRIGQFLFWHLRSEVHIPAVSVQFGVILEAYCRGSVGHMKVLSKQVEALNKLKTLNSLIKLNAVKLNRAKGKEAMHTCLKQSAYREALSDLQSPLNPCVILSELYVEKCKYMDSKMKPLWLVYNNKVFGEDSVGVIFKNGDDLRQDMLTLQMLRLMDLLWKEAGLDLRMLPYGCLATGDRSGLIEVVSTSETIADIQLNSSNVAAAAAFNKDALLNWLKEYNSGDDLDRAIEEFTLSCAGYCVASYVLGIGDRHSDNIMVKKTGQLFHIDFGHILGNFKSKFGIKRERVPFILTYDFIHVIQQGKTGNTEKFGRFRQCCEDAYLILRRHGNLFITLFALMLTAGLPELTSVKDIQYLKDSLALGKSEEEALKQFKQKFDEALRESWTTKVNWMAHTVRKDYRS
T2 sequence (O00329 with tags, fused parts or gaps limits assumed): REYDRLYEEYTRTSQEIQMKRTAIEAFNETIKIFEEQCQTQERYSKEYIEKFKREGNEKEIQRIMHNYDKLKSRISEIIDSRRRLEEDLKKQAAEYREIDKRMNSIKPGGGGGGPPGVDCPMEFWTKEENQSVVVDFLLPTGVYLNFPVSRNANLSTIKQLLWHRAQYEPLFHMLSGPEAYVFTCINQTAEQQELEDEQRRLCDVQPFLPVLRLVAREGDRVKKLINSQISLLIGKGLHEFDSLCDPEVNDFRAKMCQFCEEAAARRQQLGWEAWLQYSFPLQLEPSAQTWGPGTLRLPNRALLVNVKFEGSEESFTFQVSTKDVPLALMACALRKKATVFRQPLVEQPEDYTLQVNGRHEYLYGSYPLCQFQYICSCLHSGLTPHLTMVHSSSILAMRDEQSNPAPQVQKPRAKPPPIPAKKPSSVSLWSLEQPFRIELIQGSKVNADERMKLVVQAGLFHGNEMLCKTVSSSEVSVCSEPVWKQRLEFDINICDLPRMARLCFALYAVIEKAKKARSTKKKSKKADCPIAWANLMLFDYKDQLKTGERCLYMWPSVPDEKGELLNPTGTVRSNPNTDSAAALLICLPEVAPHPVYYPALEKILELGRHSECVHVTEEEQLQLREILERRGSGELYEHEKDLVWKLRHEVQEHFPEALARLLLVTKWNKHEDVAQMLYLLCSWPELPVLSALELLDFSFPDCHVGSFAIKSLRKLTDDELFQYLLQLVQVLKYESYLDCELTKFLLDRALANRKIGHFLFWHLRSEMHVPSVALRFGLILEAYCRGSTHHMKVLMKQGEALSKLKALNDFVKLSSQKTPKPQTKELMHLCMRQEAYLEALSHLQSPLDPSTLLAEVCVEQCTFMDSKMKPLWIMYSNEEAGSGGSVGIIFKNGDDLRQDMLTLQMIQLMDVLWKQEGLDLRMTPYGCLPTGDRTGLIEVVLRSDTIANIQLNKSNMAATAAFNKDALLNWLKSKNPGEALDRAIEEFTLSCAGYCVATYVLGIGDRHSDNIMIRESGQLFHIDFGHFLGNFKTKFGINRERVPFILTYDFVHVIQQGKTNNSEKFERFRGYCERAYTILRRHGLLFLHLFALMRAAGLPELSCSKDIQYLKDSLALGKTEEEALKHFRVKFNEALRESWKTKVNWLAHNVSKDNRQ

In general, IC50 refers to the midpoint of a concentration-inhibition curve. Turning to `COc1ccc(-c2ccc3nc(C)c(-c4ncccc4C)n3n2)cc1OC` [Example 16, 6-(3,4-Dimethoxy-phenyl)-2-methyl-3-(3-methyl-pyridin-2-yl)-imidazo[1,2-b]pyridazine], the concentration for half-maximal inhibition (IC50) on PI3K beta, on PI3K delta, on PI3K alfa and at PI3K gamma was > 25 µM in each case.

`CCOc1ccc(-c2ccc3nc(C)c(-c4ccc(N5CCOCC5)nc4)n3n2)cc1OC` [Example 14, 6-(4-Ethoxy-3-methoxy-phenyl)-2-methyl-3-(6-morpholin-4-yl-pyridin-3-yl)-imidazo[1,2-b]pyridazine]: the IC50 was 5.15 µM on PI3K beta, 2.05 µM at PI3K delta, 0.138 µM at PI3K alfa and 0.688 µM at PI3K gamma.

As for `COc1ccc(-c2ccc3nc(C)c(-c4ccc(O)nc4)n3n2)cc1OC` [Example 8, 5-[6-(3,4-dimethoxy-phenyl)-2-methyl-imidazo[1,2-b]pyridazin-3-yl]-pyridin-2-ol], the half-maximal inhibitory concentration (IC50) amounted to 1.17 µM at PI3K beta, 0.456 µM at PI3K delta, 0.042 µM on PI3K alfa and 0.303 µM on PI3K gamma.

`COc1cc(-c2ccc3nc(C)c(-c4cnc(N)c(C(F)(F)F)c4)n3n2)ccc1OCCNC(=O)Nc1cccc(C(F)(F)F)c1` [Example 93, 1-(2-{4-[3-(6-Amino-5-trifluoromethyl-pyridin-3-yl)-2-methyl-imidazo[1,2-b]pyridazin-6-yl]-2-methoxy-phenoxy}-ethyl)-3-(3-trifluoromethyl-phenyl)-urea]: the IC50 on PI3K beta is > 9.1 µM; on PI3K delta it was 4.13 µM; on PI3K alfa, 2.33 µM; on PI3K gamma it was 3.31 µM.

Consider `COc1cc(-c2ccc3nc(C)c(-c4cnc(N)c(C(F)(F)F)c4)n3n2)ccc1OCCNC(=O)c1cccnc1` [Example 31], for which the IC50 at PI3K beta is > 9.1 µM; at PI3K delta, 0.748 µM; on PI3K alfa, 0.038 µM; at PI3K gamma it was 4.32 µM.

Regarding `COc1cc(-c2ccc3nc(C)c(-c4cnc(N)c(C(F)(F)F)c4)n3n2)ccc1OCCNC(=O)Nc1cccc(C#N)c1` [Example 47], the IC50 was > 9.1 µM on PI3K beta, > 9.1 µM at PI3K delta, 1.81 µM at PI3K alfa and 4.5 µM on PI3K gamma.

With `Cc1nc2ccc(-c3ccc(OCCCN4CCCC4=O)cc3)nn2c1-c1ccc(S(C)(=O)=O)cc1` [Example 106, 1-(3-{4-[3-(4-Methanesulfonyl-phenyl)-2-methyl-imidazo[1,2-b]pyridazin-6-yl]-phenoxy}-propyl)-pyrrolidin-2-one], the IC50 is > 9.1 µM on PI3K beta, 1.04 µM at PI3K delta, 2.21 µM on PI3K alfa and 1.05 µM at PI3K gamma.

Turning to `COc1ccc(-c2ccc(-c3ccc4nc(C)c(-c5ccc(N6CCOCC6)nc5)n4n3)cc2)cc1` [Example 18, 6-(4′-Methoxy-biphenyl-4-yl)-2-methyl-3-(6-morpholin-4-yl-pyridin-3-yl)-imidazo[1,2-b]pyridazine], the IC50 on PI3K beta is 5.16 µM; at PI3K delta, > 25 µM; on PI3K alfa, > 25 µM; at PI3K gamma, > 25 µM.

For `COc1ccc(-c2ccc3nc(C)c(-c4cnc(N)c(C(F)(F)F)c4)n3n2)cc1OC` [Example 15, 5-[6-(3,4-Dimethoxy-phenyl)-2-methyl-imidazo[1,2-b]pyridazin-3-yl]-3-trifluoromethyl-pyridin-2-ylamine], the half-inhibitory concentration (IC50) was determined as 0.15 µM on PI3K beta, 0.069 µM on PI3K delta, 0.0059 µM on PI3K alfa and 0.157 µM at PI3K gamma.

`Cc1nc2ccc(-c3ccc(OCC4(NC(=O)OCc5ccccc5)COC4)cc3)nn2c1-c1cnc(N)c(C(F)(F)F)c1` [Example 112, (3-{4-[3-(6-Amino-5-trifluoromethyl-pyridin-3-yl)-2-methyl-imidazo[1,2-b]pyridazin-6-yl]-phenoxymethyl}-oxetan-3-yl)-carbamic acid benzyl ester]: the IC50 is > 9.1 µM at PI3K beta, 1.82 µM on PI3K delta, 0.821 µM on PI3K alfa and > 9.1 µM on PI3K gamma.

Turning to `COc1cc(-c2ccc3nc(C)c(-c4cnc(N)c(C(F)(F)F)c4)n3n2)ccc1OCCNC(=O)c1ccc(OC)c(OC)c1OC` [Example 95, N-(2-{4-[3-(6-Amino-5-trifluoromethyl-pyridin-3-yl)-2-methyl-imidazo[1,2-b]pyridazin-6-yl]-2-methoxy-phenoxy}-ethyl)-2,3,4-trimethoxy-benzamide], the 50% inhibitory concentration (IC50) is > 9.1 µM at PI3K beta, 5.37 µM at PI3K delta, 0.245 µM on PI3K alfa and 4.74 µM at PI3K gamma.

`Cc1nc2ccc(-c3ccc4c(c3)OCO4)nn2c1-c1cnc(N)c(C(F)(F)F)c1` [Example 108, 5-(6-Benzo[1,3]dioxol-5-yl-2-methyl-imidazo[1,2-b]pyridazin-3-yl)-3-trifluoromethyl-pyridin-2-ylamine]: the IC50 on PI3K beta was 7.08 µM; at PI3K delta, 2.27 µM; on PI3K alfa, 0.985 µM; on PI3K gamma, 6.79 µM.

In the case of `CCOc1ccc(-c2ccc3nc(C)c(-c4ccc(-c5ccc(C#N)nc5)nc4)n3n2)cc1OC` [Example 13, 5-[6-(4-Ethoxy-3-methoxy-phenyl)-2-methyl-imidazo[1,2-b]pyridazin-3-yl]-[2,3]bipyridinyl-6′-carbonitrile], the IC50 was 4.16 µM on PI3K beta, > 25 µM on PI3K delta, 0.058 µM at PI3K alfa and > 25 µM at PI3K gamma.

Consider `COCCOCCOCCOc1ccc(-c2ccc3nc(C)c(-c4ccc(S(C)(=O)=O)cc4)n3n2)cc1OC` [Example 90, 3-(4-Methanesulfonyl-phenyl)-6-(3-methoxy-4-{2-[2-(2-methoxy-ethoxy)-ethoxy]-ethoxy}-phenyl)-2-methyl-imidazo[1,2-b]pyridazine], for which the IC50 was > 9.1 µM on PI3K beta, 1.74 µM at PI3K delta, 2.36 µM at PI3K alfa and 3.46 µM on PI3K gamma.

On to `CCS(=O)(=O)c1ccc(-c2c(C)nc3ccc(-c4ccc(OCCOCCOCCOC)c(OC)c4)nn23)cc1` [Example 91, 3-(4-Ethanesulfonyl-phenyl)-6-(3-methoxy-4-{2-[2-(2-methoxy-ethoxy)-ethoxy]-ethoxy}-phenyl)-2-methyl-imidazo[1,2-b]pyridazine], for which the IC50 is > 9.1 µM on PI3K beta, 3.4 µM on PI3K delta, 4.11 µM at PI3K alfa and > 9.1 µM on PI3K gamma.

In the case of `COCCOCCOCCOc1ccc(-c2ccc3nc(C)c(-c4cnc(N)c(C(F)(F)F)c4)n3n2)cc1OC` [Example 84, 5-[6-(3-Methoxy-4-{2-[2-(2-methoxy-ethoxy)-ethoxy]-ethoxy}-phenyl)-2-methyl-imidazo[1,2-b]pyridazin-3-yl]-3-trifluoromethyl-pyridin-2-ylamine], the IC50 at PI3K beta was > 9.1 µM; on PI3K delta, 0.174 µM; at PI3K alfa, 0.04 µM; at PI3K gamma it was 0.065 µM.
